From PubChem BioAssay AID1963846 (Molecular Pharmacology Branch, DTP, NCI, 2024)

Test system: 454973-116-R2-J3-PDC complex spheroid viability
Test: Anticancer human tumor 454973-116-R2-J3-PDC patient-derived pancreatic carcinoma cell line growth inhibition [POLQ]
Settings: for IC50: curve of first compound; for viability, T/C: stronger effect = lower value; active means viability on the fitted dose curve at most 10% of control; inactive means the rest
Method in brief: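 Complex spheroid viability model combining PDC tumour cells with endothelial (HUVEC) and MSC stromal cells. Novobiocin, ART-558 or RP6685 were tested singly and in combination with standard and investigational anticancer drugs. Each was titrated in half-log steps from near clinical Cmax, or from 10 microM where Cmax was unknown.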

[1] = second compound 0.0316 µM, first compound 0.0316 µM
[2] = second compound 0.0316 µM, first compound 0.1 µM
[3] = second compound 0.0316 µM, first compound 0.316 µM
[4] = second compound 0.0316 µM, first compound 1 µM
[5] = second compound 0.1 µM, first compound 0.0316 µM
[6] = second compound 0.1 µM, first compound 0.1 µM
[7] = second compound 0.1 µM, first compound 0.316 µM
[8] = second compound 0.1 µM, first compound 1 µM
[9] = second compound 0.316 µM, first compound 0.0316 µM
[10] = second compound 0.316 µM, first compound 0.1 µM
[11] = second compound 0.316 µM, first compound 0.316 µM
[12] = second compound 0.316 µM, first compound 1 µM
[13] = second compound 1 µM, first compound 0.0316 µM
[14] = second compound 1 µM, first compound 0.1 µM
[15] = second compound 1 µM, first compound 0.316 µM
[16] = second compound 1 µM, first compound 1 µM
[17] = second compound 3.16 µM, first compound 0.0316 µM
[18] = second compound 3.16 µM, first compound 0.1 µM
[19] = second compound 3.16 µM, first compound 0.316 µM
[20] = second compound 3.16 µM, first compound 1 µM
[21] = second compound 10 µM, first compound 0.0316 µM
[22] = second compound 10 µM, first compound 0.1 µM
[23] = second compound 10 µM, first compound 0.316 µM
[24] = second compound 10 µM, first compound 1 µM
[25] = second compound 0.0316 µM, first compound 3.16 µM
[26] = second compound 0.0316 µM, first compound 10 µM
[27] = second compound 0.1 µM, first compound 3.16 µM
[28] = second compound 0.1 µM, first compound 10 µM
[29] = second compound 0.316 µM, first compound 3.16 µM
[30] = second compound 0.316 µM, first compound 10 µM
[31] = second compound 1 µM, first compound 3.16 µM
[32] = second compound 1 µM, first compound 10 µM
[33] = second compound 3.16 µM, first compound 3.16 µM
[34] = second compound 3.16 µM, first compound 10 µM
[35] = second compound 10 µM, first compound 3.16 µM
[36] = second compound 10 µM, first compound 10 µM
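Further: spheroids exposed to drugs for seven days before measurement.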
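Wherever viability, T/C is given: percent viability relative to DMSO vehicle control wells taken as 100%.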

CCc1c2c(nc3ccc(O)cc13)-c1cc3c(c(=O)n1C2)COC(=O)[C@]3(O)CC + Cc1cccc(N(C)C(=O)C2C(O)CCN2c2nc(C)cc(C(F)(F)F)c2C#N)c1
inactive: viability, T/C (second compound 0.0316 µM, first compound 0.00316 µM) 32.6% | viability, T/C (second compound 0.0316 µM, first compound 0.01 µM) 17.2% | viability, T/C [1] 13.2% | viability, T/C (second compound 0.1 µM, first compound 0.00316 µM) 31.1% | viability, T/C (second compound 0.1 µM, first compound 0.01 µM) 19.1% | viability, T/C [5] 13.6% | viability, T/C (second compound 0.316 µM, first compound 0.00316 µM) 28.8% | viability, T/C (second compound 0.316 µM, first compound 0.01 µM) 17.2% | viability, T/C [9] 15% | viability, T/C (second compound 1 µM, first compound 0.00316 µM) 35.7% | viability, T/C (second compound 1 µM, first compound 0.01 µM) 18.7% | viability, T/C [13] 11.5% | viability, T/C (second compound 3.16 µM, first compound 0.00316 µM) 33.6% | viability, T/C (second compound 3.16 µM, first compound 0.01 µM) 21.9% | viability, T/C [17] 13.1% | viability, T/C (second compound 10 µM, first compound 0.00316 µM) 26.3% | viability, T/C (second compound 10 µM, first compound 0.01 µM) 21.5% | viability, T/C [21] 12.8%
active: viability, T/C [2] 6.84% | viability, T/C [3] 2.58% | viability, T/C [4] 1.69% | viability, T/C [6] 5.52% | viability, T/C [7] 2.13% | viability, T/C [8] 1.7% | viability, T/C [10] 5.17% | viability, T/C [11] 1.9% | viability, T/C [12] 1.61% | viability, T/C [14] 5.4% | viability, T/C [15] 2.24% | viability, T/C [16] 1.72% | viability, T/C [18] 5.13% | viability, T/C [19] 2.23% | viability, T/C [20] 1.68% | viability, T/C [22] 4.56% | viability, T/C [23] 1.72% | viability, T/C [24] 4.16%
< 3.16 nM: IC50 (second compound 0.0316 µM) | IC50 (second compound 0.1 µM) | IC50 (second compound 0.316 µM) | IC50 (second compound 1 µM) | IC50 (second compound 3.16 µM) | IC50 (second compound 10 µM)

C#Cc1c(F)ccc2cc(O)cc(-c3ncc4c(N5CC6CCC(C5)N6)nc(OCC56CCCN5CC(F)C6)nc4c3F)c12 (stereo not drawn) + Cc1cccc(N(C)C(=O)C2C(O)CCN2c2nc(C)cc(C(F)(F)F)c2C#N)c1
66.3 nM: IC50 (second compound 0.0316 µM)
47.6 nM: IC50 (second compound 3.16 µM)
71.1 nM: IC50 (second compound 0.1 µM)
60.6 nM: IC50 (second compound 1 µM)
< 31.6 nM: IC50 (second compound 10 µM)
72.8 nM: IC50 (second compound 0.316 µM)
inactive: viability, T/C [1] 60.8% | viability, T/C [2] 44.5% | viability, T/C [3] 32.2% | viability, T/C [4] 25.6% | viability, T/C [25] 23% | viability, T/C [26] 19.5% | viability, T/C [5] 65.3% | viability, T/C [6] 43.8% | viability, T/C [7] 32.6% | viability, T/C [8] 30.1% | viability, T/C [27] 26.5% | viability, T/C [28] 26.6% | viability, T/C [9] 66.6% | viability, T/C [10] 44.4% | viability, T/C [11] 32.8% | viability, T/C [12] 27.9% | viability, T/C [29] 23.2% | viability, T/C [30] 28.9% | viability, T/C [13] 56% | viability, T/C [14] 45.3% | viability, T/C [15] 31.9% | viability, T/C [16] 25.2% | viability, T/C [31] 26.5% | viability, T/C [32] 25.3% | viability, T/C [17] 52.9% | viability, T/C [18] 44.5% | viability, T/C [19] 35.1% | viability, T/C [20] 23.9% | viability, T/C [33] 28.2% | viability, T/C [34] 24.4% | viability, T/C [21] 50% | viability, T/C [22] 38.5% | viability, T/C [23] 36% | viability, T/C [24] 31.8% | viability, T/C [35] 29.1% | viability, T/C [36] 23.7%

CCc1cc2c(N3CCc4c(cc(Cn5ccnc5)cc4-c4cn(C)nc4C(F)(F)F)C3=O)ccnc2c(OC)n1 + Nc1ccc(C#CCN(C(=O)Cc2ncc(C(F)(F)F)cc2C(F)(F)F)c2ccc(F)cc2)nn1
> 10000 nM: IC50 (second compound 0.0316 µM) | IC50 (second compound 0.1 µM) | IC50 (second compound 0.316 µM) | IC50 (second compound 1 µM) | IC50 (second compound 3.16 µM) | IC50 (second compound 10 µM)
inactive: viability, T/C [1] 119% | viability, T/C [2] 91.5% | viability, T/C [3] 84.1% | viability, T/C [4] 78.7% | viability, T/C [25] 72.4% | viability, T/C [26] 63.3% | viability, T/C [5] 99% | viability, T/C [6] 88.2% | viability, T/C [7] 80.8% | viability, T/C [8] 84.6% | viability, T/C [27] 72.3% | viability, T/C [28] 62.6% | viability, T/C [9] 93% | viability, T/C [10] 95.1% | viability, T/C [11] 90.3% | viability, T/C [12] 72.6% | viability, T/C [29] 78% | viability, T/C [30] 55.8% | viability, T/C [13] 112% | viability, T/C [14] 92.3% | viability, T/C [15] 93.3% | viability, T/C [16] 76.5% | viability, T/C [31] 76.6% | viability, T/C [32] 58.1% | viability, T/C [17] 101% | viability, T/C [18] 99.2% | viability, T/C [19] 93.6% | viability, T/C [20] 82.4% | viability, T/C [33] 68.3% | viability, T/C [34] 60.7% | viability, T/C [21] 111% | viability, T/C [22] 114% | viability, T/C [23] 89.1% | viability, T/C [24] 84.7% | viability, T/C [35] 81.8% | viability, T/C [36] 58.5%

C=CC(=O)N1CCN(c2nc(=O)n(-c3c(C)ccnc3C(C)C)c3nc(-c4c(O)cccc4F)c(F)cc23)C(C)C1 (stereo not drawn) + COC1C(OC(N)=O)C(O)C(Oc2ccc3c(O)c(NC(=O)c4ccc(O)c(CC=C(C)C)c4)c(=O)oc3c2C)OC1(C)C
inactive: viability, T/C [1] 108% | viability, T/C [2] 106% | viability, T/C [3] 97.8% | viability, T/C [4] 111% | viability, T/C [25] 114% | viability, T/C [26] 106% | viability, T/C [5] 108% | viability, T/C [6] 110% | viability, T/C [7] 105% | viability, T/C [8] 113% | viability, T/C [27] 111% | viability, T/C [28] 108% | viability, T/C [9] 102% | viability, T/C [10] 107% | viability, T/C [11] 103% | viability, T/C [12] 113% | viability, T/C [29] 113% | viability, T/C [30] 108% | viability, T/C [13] 113% | viability, T/C [14] 108% | viability, T/C [15] 105% | viability, T/C [16] 114% | viability, T/C [31] 104% | viability, T/C [32] 103% | viability, T/C [17] 110% | viability, T/C [18] 101% | viability, T/C [19] 105% | viability, T/C [20] 97.9% | viability, T/C [33] 111% | viability, T/C [34] 102% | viability, T/C [21] 101% | viability, T/C [22] 104% | viability, T/C [23] 99.8% | viability, T/C [24] 105% | viability, T/C [35] 110% | viability, T/C [36] 103%
> 10000 nM: IC50 (second compound 0.0316 µM) | IC50 (second compound 0.1 µM) | IC50 (second compound 0.316 µM) | IC50 (second compound 1 µM) | IC50 (second compound 3.16 µM) | IC50 (second compound 10 µM)
